Activity calls are given as the source filed them. No cut-off for these calls is given here.
Columns and labels:
Assay type in all cases: functional, cell-based
Conditions in all cases: dose 0.1-1 nmol
2B4 = assay: Induction of NFAT-GFP signal in mouse 2B4 reporter cells expressing mMincle + FcRgamma at 0.1 to 1 nmol incubated for 18 hrs by flow cytometry analysis
BMDM [1] = assay: Induction of cytokine production in wild type C57BL/6 mouse BMDM cells assessed as IL-6 secretion at 0.1 to 1 nmol incubated for 24 hrs by ELISA method
BMDM [2] = assay: Induction of cytokine production in wild type C57BL/6 mouse BMDM cells assessed as IL-10 secretion at 0.1 to 1 nmol incubated for 24 hrs by ELISA method
BMDM [3] = assay: Induction of cytokine production in wild type C57BL/6 mouse BMDM cells assessed as IL-1beta secretion at 0.1 to 1 nmol incubated for 24 hrs by ELISA method

Structure (SMILES)	Activity (2B4)	Activity (BMDM [1])	Activity (BMDM [2])	Activity (BMDM [3])
CCCCCCCCOc1ccccc1-c1cn(C[C@H]2O[C@H](O[C@H]3O[C@H](Cn4cc(-c5ccccc5OCCCCCCCC)nn4)[C@@H](O)[C@H](O)[C@H]3O)[C@H](O)[C@@H](O)[C@@H]2O)nn1	Active			
O[C@@H]1[C@@H](O)[C@@H](O[C@H]2O[C@H](Cn3cc(-c4ccccc4)nn3)[C@@H](O)[C@H](O)[C@H]2O)O[C@H](Cn2cc(-c3ccccc3)nn2)[C@H]1O	inactive			
CCCCCCCCOc1ccc(-c2cn(C[C@H]3O[C@H](O[C@H]4O[C@H](Cn5cc(-c6ccc(OCCCCCCCC)c(OCCCCCCCC)c6)nn5)[C@@H](O)[C@H](O)[C@H]4O)[C@H](O)[C@@H](O)[C@@H]3O)nn2)cc1OCCCCCCCC	Active	inactive	inactive	inactive
CCCCCCCCOc1cc(OCCCCCCCC)cc(-c2cn(C[C@H]3O[C@H](O[C@H]4O[C@H](Cn5cc(-c6cc(OCCCCCCCC)cc(OCCCCCCCC)c6)nn5)[C@@H](O)[C@H](O)[C@H]4O)[C@H](O)[C@@H](O)[C@@H]3O)nn2)c1	Active	Active	Active	inactive
CCCCCCCCOc1cccc(-c2cn(C[C@H]3O[C@H](O[C@H]4O[C@H](Cn5cc(-c6cccc(OCCCCCCCC)c6OCCCCCCCC)nn5)[C@@H](O)[C@H](O)[C@H]4O)[C@H](O)[C@@H](O)[C@@H]3O)nn2)c1OCCCCCCCC	Active	Active	Active	Active
CCCCCCCCOc1ccc(-c2cn(C[C@H]3O[C@H](O[C@H]4O[C@H](Cn5cc(-c6ccc(OCCCCCCCC)cc6)nn5)[C@@H](O)[C@H](O)[C@H]4O)[C@H](O)[C@@H](O)[C@@H]3O)nn2)cc1	Active			
CCCCCCCCOc1ccc(-c2cn(C[C@H]3O[C@H](O[C@H]4O[C@H](Cn5cc(-c6ccc(OCCCCCCCC)cc6OCCCCCCCC)nn5)[C@@H](O)[C@H](O)[C@H]4O)[C@H](O)[C@@H](O)[C@@H]3O)nn2)c(OCCCCCCCC)c1	Active	Active	Active	Active
